Experimental data reported in patent publication US12458647B2, “Macrocyclic derivative and use thereof” (Guangzhou Joyo Pharmatech Co., Ltd., priority 2022, dated 2025).

Experiments:
SW620 cells = test: In vitro cell proliferation experiment (5 days), SW620; format: cell-based; conditions: SW620, 5 days; read-out: Inhibitory Activity IC50
Method: (§1) RPMI 1640 medium, DMEM, Ham's F12 medium, F12K medium, IMDM and penicillin/streptomycin antibiotics were purchased from Gibco, fetal bovine serum was purchased from Hyclone, Envision multilabel plate reader (PerkinElmer). […]
(§2) The test compound was diluted by 5-fold to 8 concentrations with a pipette, i.e., from 2 mM to 25.6 nM, and replicate wells were set up for the experiment. […] Another cell plate was prepared, and the signal value was read as the maximum value (the maximum value in the following equation) on the day of dosing for data analysis.
(§3) 50 μL of cell viability chemiluminescent detection reagent was added to the cell plate and incubated at room temperature for 30 minutes to stabilize the luminescence signal. A multilabel plate reader was used for reading. […]

HCT116 cells = test: In vitro cell proliferation experiment (5 days), HCT116; format: cell-based; conditions: HCT116, 5 days; read-out: Inhibitory Activity IC50
Method: as §1, §2, §3

A427 cell line = test: In vitro cell proliferation experiment (5 days), A427; format: cell-based; conditions: A427, 5 days; read-out: Inhibitory Activity IC50
Method: as §1, §2, §3

Capan-1 cells = test: In vitro cell proliferation experiment (5 days), Capan-1; format: cell-based; conditions: Capan-1, 5 days; read-out: Inhibitory Activity IC50
Method: as §1, §2, §3

[1] = system: human pancreatic cancer PK59 cells; test: In vivo pharmacodynamic study, PK59 subcutaneous xenograft tumor model in BALB/c nude mice; conditions: gavage once daily
Method: To study the in vivo efficacy of a compound of the present disclosure in BALB/c nude mice subcutaneous xenograft tumor model of human pancreatic cancer PK59 cells.
Laboratory animals: Female BALB/c nude mice, 6-8 weeks old, weighing 18-22 g; supplier. Beijing Vital River Laboratory Animal Technology Co., Ltd.
(1) Cell culture. Human pancreatic cancer PK59 cells were cultured in vitro in a monolayer, and the culture conditions were 10% fetal bovine serum added to Gibco RMPI1640 medium, incubated at 37° C. in a 5% CO2 incubator. Routine passage was performed twice a week with trypsin-EDTA for digestion. When the cell saturation was 80%-90% and the required number was reached, the cells were collected, counted, and inoculated.
(2) Tumour cell inoculation and grouping: 0.2 mL (2×10^6) of PK59 cells (Matrigel was added in a volume ratio of 1:1) was subcutaneously inoculated into the right back of each mouse, and dosing was started when the mean tumor volume reached about 104.4 mm^3, with 6 animals in each group.
The vehicle was 5% DMSO/10% solutol/85% water. Control group: The vehicle was administered via gavage once daily at a dose of 10 μL/g; treatment group: After dissolving the test compound in the vehicle, the compound was administered by gavage once daily.
(3) The tumor diameter was measured with a vernier caliper twice weekly, and the tumor volume (V) was calculated. The formula is: V=0.5a×b^2, where a and b are the long and short diameters of the tumor, respectively. The tumor inhibitory efficacy of the test compound was evaluated by the tumor growth inhibition rate (TGI). The calculation formula is: TGI %=[1−(Mean tumor volume at the end of dosing in a treatment group−Mean tumor volume at the start of dosing in this treatment group)/(Mean tumor volume at the end of treatment in the vehicle control group−Mean tumor volume at the start of treatment in the vehicle control group)×100%.

IC50 (SW620 cells): 0.2 nM
IC50 (HCT116 cells): 5.5 nM
Structure (SMILES): CCn1c(-c2cc(N3CCN(C)CC3)cnc2C(C)OC)c2c3cc(ccc31)-c1csc(n1)CC(NC(=O)C1C(C)C1C)C(=O)N1NC(C(=O)OCC(C)(C)C2)C2CC1C2 (single isomer, unassigned) [Compound 6A]
IC50 (A427 cell line): 13.3 nM
IC50 (Capan-1 cells): 2.5 nM
Tumour Volume (mm^3) Day 1 ([1]; 0.5 mpk): 103.6 mm^3
Tumour Volume (mm^3) Day 7 ([1]; 0.5 mpk): 111.0 mm^3
Tumour Volume (mm^3) Day 14 ([1]; 0.5 mpk): 112.4 mm^3
TGI (%) Day 22 ([1]; 0.5 mpk): 101%
Tumour Volume (mm^3) Day 22 ([1]; 0.5 mpk): 96.4 mm^3
Tumour Volume (mm^3) Day 1 ([1]; 2 mpk): 103.5 mm^3
Tumour Volume (mm^3) Day 7 ([1]; 2 mpk): 64.3 mm^3
Tumour Volume (mm^3) Day 14 ([1]; 2 mpk): 45.5 mm^3
TGI (%) Day 22 ([1]; 2 mpk): 107%
Tumour Volume (mm^3) Day 22 ([1]; 2 mpk): 43.3 mm^3
Tumour Volume (mm^3) Day 1 ([1]; 5 mpk): 103.8 mm^3
Tumour Volume (mm^3) Day 7 ([1]; 5 mpk): 65.0 mm^3
Tumour Volume (mm^3) Day 14 ([1]; 5 mpk): 35.7 mm^3
TGI (%) Day 22 ([1]; 5 mpk): 108%
Tumour Volume (mm^3) Day 22 ([1]; 5 mpk): 34.3 mm^3
